Measurements as given in paper PMC6941952, “A homogeneous bioluminescent immunoassay to probe cellular signaling pathway regulation” (Communications Biology, 2020).
Several values for one entry are separate records, joined by “and”; a condition that tells them apart may be missing. Equal entries are not always repeated.

Tested on: phospho-IκBα (Ser32)
Test: NanoBiT cell-based immunoassay, phosphorylated IκBα in MCF-7 cells
Set-up: species or system human
Conditions: for Fold change (TNF-treated /Non-treated): P-IkB; for P-IkB Average / Average: background subtracted
Method: Prior to NanoBiT Cell-Based Immunoassay, 50,000 cells were seeded in 160 µl of complete growth media per well of a 96-well plate and incubated overnight. The cells were checked under microscope and it was determined that 50,000 cells per well in 96-well plate is under 90% confluency for all cells tested. If necessary, the cell culture media were replaced with serum-free media after the cells were stably adherent on the plate and incubated overnight. To treat cells with activators or inhibitors, medium was changed to 30 µl of medium containing inhibitors. If activation of a specific pathway is needed, the cells were stimulated with 10 µl of medium containing activators. To lyse the cells, 10 µl of lysis buffer containing 0.1% digitonin diluted in 1X immunoassay buffer with protease and phosphatase inhibitors was added and the plates were mixed vigorously for 20 min. Then, 50 µl of an antibody mix containing two primary antibodies against the target protein and NanoBiT detecting antibodies (0.3 µl each per well), diluted in 1X immunoassay buffer was added to the lysates. The plates were incubated at 23 °C for 90 min, followed by the addition of 25 µl of Nano-Glo® reagent consisting of Nano-Glo® Luciferase Assay Substrate mixed with 1X immunoassay buffer. Luminescence was measured using a plate-reading luminometer.
In all, 50,000 MCF-7 cells were seeded in 160 µl complete growth medium per well of a 96-well plate and incubated overnight. Half of the cells were treated with 50 ng per ml TNFα and half with vehicle. Cells were lysed as described above and a mixture of NanoBiT secondary antibodies with primary antibodies at the matrix concentrations described in Fig. 2a were added. After 90 min incubation, the Nano-Glo® reagent was added to the reactions as described above and luminescence was measured using a plate-reading luminometer.
Single dose or dose response inhibitor treatments were performed prior to activation of the pathways as follows. For IκBα, the cells were treated in 30 µl medium with IKK16 or MG132 for 60 min before the addition of 10 µl of DMEM containing appropriate concentration of TNFα. To measure phosphorylation of AKT or STAT3, the corresponding NanoBiT immunoassays were developed with MCF-7 or A431 cells, respectively, according the same scheme used to develop the IκBα assay using the primary antibodies for AKT and STAT3 described in the reagents section. For the AKT assay, MCF-7 cells were incubated overnight in phenol-red free DMEM medium (Gibco #21063-029) without serum. Treatment with LY294002 was performed in 30 µl medium and cells were incubated for 60 min before the addition of 1 µM Insulin. To measure STAT3 phosphorylation, A431 cells were incubated overnight in DMEM medium without serum. […] After addition of the stimulators, the cells were incubated for additional times as follows. IκBα phosphorylation and degradation analyses required both time courses and single time points as described in figures. […] The NanoBiT immunoassay protocol was followed as described above.
All 96-well assay plates were read using a GloMax® 96 Microplate Luminometer from Promega. The instrument was set to 0.5 s integration time. In order to obtain net change of signal, the reagent background values (signal from the well containing all reagent except primary antibodies) were subtracted from the sample values. To plot and analyze the data, Microsoft Excel and GraphPad Prism® Software were used. IC50 values were determined by using a nonlinear regression fit to a sigmoidal dose response (variable slope).

[1] = Figure 2b, Ab incubation 5 min, listed as TNF
[2] = Figure 2b, Ab incubation 10 min, listed as TNF
[3] = Figure 2b, Ab incubation 60 min, listed as TNF
[4] = Figure 2b, Ab incubation 90 min, listed as TNF
[5] = Figure 2b, Ab incubation 120 min, listed as TNF
[6] = Figure 2b, Ab incubation 10 min
[7] = Figure 2b, Ab incubation 30 min
[8] = Figure 2b, Ab incubation 60 min
[9] = Figure 2b, Ab incubation 90 min
[10] = Figure 2b, Ab incubation 120 min
[11] = Figure 2c, Cell # 3500, listed as TNF
[12] = Figure 2c, Cell # 7000, listed as TNF
[13] = Figure 2c, Cell # 14000, listed as TNF
[14] = Figure 2c, Cell # 21000, listed as TNF
[15] = Figure 2c, Cell # 28000, listed as TNF
[16] = Figure 2c, Cell # 35000, listed as TNF
[17] = Figure 2c, Cell # 42000, listed as TNF
[18] = Figure 2c, Cell # 49000, listed as TNF
[19] = Figure 2c, Cell # 56000, listed as TNF
[20] = Figure 2c, Cell # 63000, listed as TNF
[21] = Figure 3a and 3b, listed as TNF
[22] = No MG132, TNF 2 min, listed as TNF
[23] = No MG132, TNF 4 min, listed as TNF
[24] = No MG132, TNF 10 min, listed as TNF
[25] = No MG132, TNF 12 min, listed as TNF
[26] = No MG132, TNF 15 min, listed as TNF
[27] = No MG132, TNF 30 min, listed as TNF
[28] = plate #1, IkB Ab #1 75 ng/ml, P-IkB Ab #1 75 ng/ml, TNF

TNFα was tested, and the “P-IkB Raw data” value [1] was 13050, the “P-IkB Subtract reagent background” value [1] was 1653 and 2223 and 1733 and the “P-IkB Raw data” value [2] was 15430. For the same substance, the “P-IkB Subtract reagent background” value [2] was 4075 and 4145 and 2725, the “P-IkB Subtract reagent background” value (Figure 2b, Ab incubation 30 min, listed as TNF) was 11622 and 12702 and 12152 and the “P-IkB Raw data” value [3] was 35930. For the same substance, the “P-IkB Subtract reagent background” value [3] was 23000 and 23900 and 26790, the “P-IkB Raw data” value [4] was 44160 and the “P-IkB Subtract reagent background” value [4] was 32005 and 32085 and 32105. For the same substance, the “P-IkB Raw data” value [5] was 26480, the “P-IkB Subtract reagent background” value [5] was 19503 and 18993 and 21543 and the “Fold change (TNF-treated /Non-treated)” value (Figure 2b, Ab incubation 5 min) was -51. For the same substance, the “Fold change (TNF-treated /Non-treated)” value [6] was 25, the “Fold change (TNF-treated /Non-treated)” value [7] was 10 and the “Fold change (TNF-treated /Non-treated)” value [8] was 14. The “Fold change (TNF-treated /Non-treated)” value [9] was 13, the “Fold change (TNF-treated /Non-treated)” value [10] was 12 and the “P-IkB Average” value (Figure 2b, Ab incubation 5 min) was 1870. The “P-IkB Average” value [6] was 3648, the “P-IkB Average” value [7] was 12158 and the “P-IkB Average” value [8] was 24563. For the same substance, the “P-IkB Average” value [9] was 32065, the “P-IkB Average” value [10] was 20013 and the Raw data [11] was 19860 and 20790. For the same substance, the Subtract background [11] was 6010 and 6150, the Raw data [12] was 22450 and 23090 and the Subtract background [12] was 8600 and 8450. For the same substance, the Raw data [13] was 26500 and 26620, the Subtract background [13] was 12650 and 11980 and the Raw data [14] was 26350 and 27260. The Subtract background [14] was 12500 and 12620, the Raw data [15] was 29180 and 29230 and the Subtract background [15] was 15330 and 14590. For the same substance, the Raw data [16] was 32490 and 30000, the Subtract background [16] was 18640 and 15360 and the Raw data [17] was 35680 and 35010. For the same substance, the Subtract background [17] was 21830 and 20370, the Raw data [18] was 36150 and 38410 and the Subtract background [18] was 22300 and 23770. For the same substance, the Raw data [19] was 38800 and 38570, the Subtract background [19] was 24950 and 23930 and the Raw data [20] was 40840 and 40330. For the same substance, the Subtract background [20] was 26990 and 25690, the Average (Figure 2c, Cell # 3500) was 6080 and the Average (Figure 2c, Cell # 7000) was 8525. It also gave an Average (Figure 2c, Cell # 14000) of 12315, an Average (Figure 2c, Cell # 21000) of 12560 and an Average (Figure 2c, Cell # 28000) of 14960. The Average (Figure 2c, Cell # 35000) was 17000, the Average (Figure 2c, Cell # 42000) was 21100 and the Average (Figure 2c, Cell # 49000) was 23035. The Average (Figure 2c, Cell # 56000) was 24440, the Average (Figure 2c, Cell # 63000) was 26340 and the “P-IkB Average” value (Figure 3a and 3b) was 18603. For the same substance, the “P-IkB Raw data” value [21] was 40970 and 39480 and 37340, the “P-IkB Subtract reagent background” value [21] was 20310 and 18820 and 16680 and the “P-IkB Average” value (No MG132, TNF 2 min) was 1340. The “P-IkB Raw data” value [22] was 17500 and 17960 and 17760 and 18420, the “P-IkB Subtract reagent background” value [22] was 930 and 1390 and 1190 and 1850 and the “P-IkB Average” value (No MG132, TNF 4 min) was 2908. For the same substance, the “P-IkB Raw data” value [23] was 18550 and 18960 and 19930 and 20470, the “P-IkB Subtract reagent background” value [23] was 1980 and 2390 and 3360 and 3900 and the “P-IkB Average” value (No MG132, TNF 6 min) was 9185. The “P-IkB Raw data” value (No MG132, TNF 6 min, listed as TNF) was 21700 and 24830 and 27800 and 28690, the “P-IkB Average” value (No MG132, TNF 8 min) was 17540 and the “P-IkB Raw data” value (No MG132, TNF 8 min, listed as TNF) was 27040 and 33390 and 37550 and 38460. For the same substance, the “P-IkB Average” value (No MG132, TNF 10 min) was 21585, the “P-IkB Raw data” value [24] was 32290 and 37160 and 40510 and 42660 and the “P-IkB Subtract reagent background” value [24] was 15720 and 20590 and 23940 and 26090. For the same substance, the “P-IkB Average” value (No MG132, TNF 12 min) was 19345, the “P-IkB Raw data” value [25] was 33820 and 35920 and 37120 and 36800 and the “P-IkB Subtract reagent background” value [25] was 17250 and 19350 and 20550 and 20230. For the same substance, the “P-IkB Average” value (No MG132, TNF 15 min) was 13560, the “P-IkB Raw data” value [26] was 29860 and 30140 and 30400 and 30120 and the “P-IkB Subtract reagent background” value [26] was 13290 and 13570 and 13830 and 13550. For the same substance, the “P-IkB Average” value (No MG132, TNF 30 min) was 3855, the “P-IkB Raw data” value [27] was 20170 and 19970 and 20370 and 21190 and the “P-IkB Subtract reagent background” value [27] was 3600 and 3400 and 3800 and 4620. The Raw data [28] was 32920 and the Subtract reagent background [28] was 14010.
